This passage reports IC50 results from patent US20220089592A1, “IMIDAZO[1,2-A]PYRIDINYL DERIVATIVES AS IRAK4 INHIBITORS” (priority 2019, published 2022).

The target of the assay is T1, IRAK4 (Homo sapiens, UniProt Q9NWZ3).
T1 sequence (Q9NWZ3 1-460): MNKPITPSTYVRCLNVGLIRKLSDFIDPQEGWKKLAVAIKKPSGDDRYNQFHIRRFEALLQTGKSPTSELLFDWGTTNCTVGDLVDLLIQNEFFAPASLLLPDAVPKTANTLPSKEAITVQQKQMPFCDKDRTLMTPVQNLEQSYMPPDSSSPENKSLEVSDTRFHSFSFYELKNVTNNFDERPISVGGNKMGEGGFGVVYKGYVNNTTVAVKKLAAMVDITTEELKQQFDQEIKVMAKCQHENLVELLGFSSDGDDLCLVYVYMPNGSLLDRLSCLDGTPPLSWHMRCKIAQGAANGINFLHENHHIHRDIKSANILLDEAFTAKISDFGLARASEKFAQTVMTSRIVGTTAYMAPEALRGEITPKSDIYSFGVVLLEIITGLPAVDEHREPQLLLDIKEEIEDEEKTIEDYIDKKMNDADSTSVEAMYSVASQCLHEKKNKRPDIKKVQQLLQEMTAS
As to the kind of experiment: 2-hour 10 μM ATP Biochemical Assay (MesoScale Detection format; IRAK4 phosphorylation of biotin labeled IRAK1 activation loop peptide). Particulars: IRAK4 MSD BIOCHEMICAL (10 μM ATP) IC50 (μM), 1 nM IRAK4, 2 hours. The procedure: The 2-hour 10 μM ATP Biochemical Assay employs a MesoScale Detection (MSD) format.
The activity is quenched with 11 μl of 70 mM EDTA, pH 8.
To detect the phosphorylated biotinylated peptide substrate, 30 μl of the quenched reaction mixture is added to equivalent wells of a 384 well streptavidin coated MesoScale plate (Meso Scale Discovery #L21SA-1). After a 1 hour incubation of the plate for 1 hour at room temperature with gentle mixing, the plate wells are washed 3 times with 50 mM Tris, pH 7.5, 150 mM NaCl, 0.02% Tween-20.
A 25 μl volume of 1:500 anti-P-Threonine Rabbit polyclonal Antibody plus 1:500 Goat-anti-Rabbit Sulfo Tag Antibody (Meso Scale Discovery R32AB-1) in 50 mM Tris, pH 7.5, 150 mM NaCl, 0.02% Tween-20 plus 2% BSA is then added to each well. After a 1-hour incubation of the plate for 1 hour at room temperature with gentle mixing, the plate wells are washed, 3 times with 50 mM Tris, pH 7.5, 150 mM NaCl, 0.02% Tween-20. A 40 μl volume of 2×MSD Read Buffer (Meso Scale Discovery R92TC-1) is added to each well, and the plate is read immediately in an MSD Plate Reader (Meso Scale Discovery).
As to `CCOc1cc2nc(C3CCN(C)C(=O)C3)cn2cc1NC(=O)c1cccc(C(F)F)n1` (racemic) [Example 75, 6-(difluoromethyl)-N-(7-ethoxy-2-(1-methyl-2-oxopiperidin-4-yl)imidazo[1,2-a]pyridin-6-yl)picolinamide], 0.001 µM corresponded to half-maximal inhibition (IC50). Then `CCOc1cc2nc(CC)cn2cc1NC(=O)c1cccc2c1OCCN2C` [Example 39, N-(7-ethoxy-2-ethylimidazo[1,2-a]pyridin-6-yl)-4-methyl-3,4-dihydro-2H-benzo[b][1,4]oxazine-8-carboxamide], with 0.016 µM. To `CCOc1cc2nc(CC3CCOC3)cn2cc1NC(=O)c1coc(-c2cnn(C)c2)n1` (single isomer, unassigned) [Example 252, N-(7-ethoxy-2-((tetrahydrofuran-3-yl)methyl)imidazo[1,2-a]pyridin-6-yl)-2-(1-methyl-1H-pyrazol-4-yl)oxazole-4-carboxamide] belongs 0.001 µM; to `CCOc1cc2nc(CC)cn2cc1NC(=O)c1ccc(Cl)cn1` [Example 46, 5-chloro-N-(7-ethoxy-2-ethylimidazo[1,2-a]pyridin-6-yl)picolinamide], 0.083 µM. On to `COc1cc(NC(=O)c2csc(C)n2)cn2cc(C3CCOCC3)nc12` [Example 305, N-(8-methoxy-2-(tetrahydro-2H-pyran-4-yl)imidazo[1,2-a]pyridin-6-yl)-2-methylthiazole-4-carboxamide], for which the midpoint of inhibition, the IC50, lay at 0.026 µM.

With `CCOc1cc2nc(C3CC3)c(F)n2cc1NC(=O)c1cccc(C(F)F)n1` [Example 29, N-(2-cyclopropyl-7-ethoxy-3-fluoroimidazo[1,2-a]pyridin-6-yl)-6-(difluoromethyl)picolinamide], the concentration for half-maximal inhibition (IC50) was determined as 0.023 µM. As to `CCOc1cc2nc(CC)cn2cc1NC(=O)c1ccc(F)c(F)c1` [Example 35, N-(7-ethoxy-2-ethylimidazo[1,2-a]pyridin-6-yl)-3,4-difluorobenzamide], the IC50 is 2.5 µM. Then `COc1cc(NC(=O)c2cccc(C(F)F)n2)cn2cc(CC3CCOCC3)nc12` [Example 506, 6-(difluoromethyl)-N-(8-methoxy-2-((tetrahydro-2H-pyran-4-yl)methyl)imidazo[1,2-a]pyridin-6-yl)picolinamide], with 0.004 µM; and `CCOc1cc2nc(CC3CCOC3)cn2cc1NC(=O)c1nc(C)no1` (stereo not drawn) [Example 158, N-(7-ethoxy-2-((tetrahydrofuran-3-yl)methyl)imidazo[1,2-a]pyridin-6-yl)-3-methyl-1,2,4-oxadiazole-5-carboxamide], with 2.9 µM; and `CCOc1cc2nc(C3CC3)cn2cc1NC(=O)c1cccc(C(F)(F)F)c1` [Example 54, N-(2-cyclopropyl-7-ethoxyimidazo[1,2-a]pyridin-6-yl)-3-(trifluoromethyl)benzamide], with 0.14 µM. To `CCOc1cc2nc(CC)cn2cc1NC(=O)c1ccc2c(c1)NC(=O)C2` [Example 41, N-(7-ethoxy-2-ethylimidazo[1,2-a]pyridin-6-yl)-2-oxoindoline-6-carboxamide] belongs 0.14 µM; to `CC1(COc2cc3nc(C4CCOCC4)cn3cc2NC(=O)c2cnn(C(F)F)c2)COC1` [Example 161, 1-(difluoromethyl)-N-(7-((3-methyloxetan-3-yl)methoxy)-2-(tetrahydro-2H-pyran-4-yl)imidazo[1,2-a]pyridin-6-yl)-1H-pyrazole-4-carboxamide], 0.4 µM; to `CC(COc1cc2nc(C3CC3)cn2cc1NC(=O)c1cccc(C(F)F)n1)n1ccccc1=O` (stereo not drawn) [Example 6, N-(2-cyclopropyl-7-(2-(2-oxopyridin-1(2H)-yl)propoxy)imidazo[1,2-a]pyridin-6-yl)-6-(difluoromethyl)picolinamide], 0.19 µM.

In turn, `CN(C)CCOc1cc2nc(C3CCOCC3)cn2cc1NC(=O)c1cccc(C(F)F)n1` [Example 148, 6-(difluoromethyl)-N-(7-(2-(dimethylamino)ethoxy)-2-(tetrahydro-2H-pyran-4-yl)imidazo[1,2-a]pyridin-6-yl)picolinamide] came in with an IC50 of 0.023 µM. To `COc1cc(NC(=O)c2cccc(C(F)F)n2)cn2cc(CC3CCOC3)nc12` (stereo not drawn) [Example 411, 6-(difluoromethyl)-N-(8-methoxy-2-((tetrahydrofuran-3-yl)methyl)imidazo[1,2-a]pyridin-6-yl)picolinamide] belongs 0.003 µM; to `COc1nc(NC(=O)c2cccc3c2OCC3)cn2cc(C3CCOCC3)nc12` [Example 453, N-(8-methoxy-2-(tetrahydro-2H-pyran-4-yl)imidazo[1,2-a]pyrazin-6-yl)-2,3-dihydrobenzofuran-7-carboxamide], 0.005 µM; to `COc1cc(NC(=O)c2cccc(C(F)F)n2)cn2cc(C34COC(C3)C4)nc12` [Example 544, N-(2-(2-oxabicyclo[2.1.1]hexan-4-yl)-8-methoxyimidazo[1,2-a]pyridin-6-yl)-6-(difluoromethyl)picolinamide 2,2,2-trifluoroacetate], 0.011 µM. Then `COc1cc(NC(=O)c2cccc(C(F)F)n2)cn2cc(C3CC4CCC(C3)O4)nc12` (stereo not drawn) [Example 509, N-(2-(8-oxabicyclo[3.2.1]octan-3-yl)-8-methoxyimidazo[1,2-a]pyridin-6-yl)-6-(difluoromethyl)picolinamide 2,2,2-trifluoroacetate], with 0.002 µM; and `CCOc1cc2nc(C3CN(CC(F)F)C3)cn2cc1NC(=O)c1ccn(CC(F)F)n1` [Example 291, 1-(2,2-difluoroethyl)-N-(2-(1-(2,2-difluoroethyl)azetidin-3-yl)-7-ethoxyimidazo[1,2-a]pyridin-6-yl)-1H-pyrazole-3-carboxamide], with 0.003 µM; and `CCOc1cc2nc(C3CCOC(C)(C)C3)cn2cc1NC(=O)c1cccc(C(F)(F)F)n1` (stereo not drawn) [Example 113, N-(2-(2,2-dimethyltetrahydro-2H-pyran-4-yl)-7-ethoxyimidazo[1,2-a]pyridin-6-yl)-6-(trifluoromethyl)picolinamide], with 0.001 µM. To `CCOc1cc2nc(C3CCOCC3)cn2cc1NC(=O)c1cccc(C)c1` [Example 229, N-(7-ethoxy-2-(tetrahydro-2H-pyran-4-yl)imidazo[1,2-a]pyridin-6-yl)-3-methylbenzamide] belongs 0.025 µM.

`CCOc1cc(NC(=O)c2cccc(C(F)F)n2)cn2cc(C3CC3)nc12` [Example 28, N-(2-cyclopropyl-8-ethoxyimidazo[1,2-a]pyridin-6-yl)-6-(difluoromethyl)picolinamide] displayed an IC50 of 0.043 µM. The compound `COc1cc(NC(=O)c2ccn(C)n2)cn2cc(C3CCOCC3)nc12` [Example 412, N-(8-methoxy-2-(tetrahydro-2H-pyran-4-yl)imidazo[1,2-a]pyridin-6-yl)-1-methyl-1H-pyrazole-3-carboxamide 2,2,2-trifluoroacetate] came in with a concentration for half-maximal inhibition (IC50) of 0.037 µM. Then `CCOc1cc2nc(C3CCOCC3)cn2cc1NC(=O)c1ccccc1F` [Example 212, N-(7-ethoxy-2-(tetrahydro-2H-pyran-4-yl)imidazo[1,2-a]pyridin-6-yl)-2-fluorobenzamide], with 0.022 µM. To `COc1nc(NC(=O)c2ccn(CC(F)F)n2)cn2cc(C3CCOCC3)nc12` [Example 452, 1-(2,2-difluoroethyl)-N-(8-methoxy-2-(tetrahydro-2H-pyran-4-yl)imidazo[1,2-a]pyrazin-6-yl)-1H-pyrazole-3-carboxamide] belongs 0.031 µM. To `O=C(Nc1cn2cc(C3CCOCC3)nc2cc1OC1CCCC1)c1cccc(C(F)F)n1` [Example 175, N-(7-(cyclopentyloxy)-2-(tetrahydro-2H-pyran-4-yl)imidazo[1,2-a]pyridin-6-yl)-6-(difluoromethyl)picolinamide] belongs 0.001 µM. The compound `COc1cc2nc(C3CC3)cn2cc1NC(=O)c1cccn(C)c1=O` [Example 52, N-(2-cyclopropyl-7-methoxyimidazo[1,2-a]pyridin-6-yl)-1-methyl-2-oxo-1,2-dihydropyridine-3-carboxamide] gave an IC50 of 0.033 µM. For the compound `CCOc1cc2nc(CC)cn2cc1NC(=O)c1ccc2c(c1)COCC2` [Example 43, N-(7-ethoxy-2-ethylimidazo[1,2-a]pyridin-6-yl)isochromane-7-carboxamide], the half-maximal inhibitory concentration (IC50) was found to be 2.6 µM. Against the preceding compound, the IC50 is about 79-fold higher.

Consider `CCOc1cc2nc(C3CC3)cn2cc1NC(=O)c1cncc(C(F)(F)F)n1` [Example 120, N-(2-cyclopropyl-7-ethoxyimidazo[1,2-a]pyridin-6-yl)-6-(trifluoromethyl)pyrazine-2-carboxamide], for which inhibition was half-maximal at 0.028 µM (IC50). To `CCOc1cc2nc(C3CC3)cn2cc1NC(=O)c1cccc(C2(O)CCC2)n1` [Example 132, N-(2-cyclopropyl-7-ethoxyimidazo[1,2-a]pyridin-6-yl)-6-(1-hydroxycyclobutyl)picolinamide] belongs 0.018 µM.

A word on the IC50: it is the concentration needed to halve the response being measured.
